# Experimental data reported in patent publication US4581346A, “Macrolide derivatives” (Eli Lilly and Company, priority 1984, dated 1986).
# Legend:
# Assay in all cases: Standard agar-dilution assay, MIC
# Assay type in all cases: cell-based
# [1] = tested on: Streptococcus Group D 9960; details: GROUPD9960
# Procedure: (§1) The minimal inhibitory concentrations (MIC's) at which the tylosin derivative (formula 1 compound wherein [drawing 11] and R^3 =mycarosyloxy) inhibits certain bacteria are given in Table II. The MIC's in Table II were determined by standard agar-dilution assays.
# [2] = tested on: Escherichia coli N10
# Procedure: as §1
# [3] = tested on: Staphylococcus aureus X400
# Procedure: as §1
# [4] = tested on: Staphylococcus epidermidis EPI2
# Procedure: as §1
# [5] = tested on: Streptococcus pneumoniae Park I
# Procedure: as §1
# [6] = tested on: Staphylococcus aureus S13E
# Procedure: as §1
# [7] = tested on: Streptococcus Group D X66
# Procedure: as §1
# [8] = tested on: Staphylococcus aureus X1.1
# Procedure: as §1
# [9] = tested on: Staphylococcus aureus V41; details: Staphylococcus aureus V41, penicillin-resistant strain
# Procedure: as §1
# [10] = tested on: Haemophilus influenzae 76; details: Haemophilus influenzae 76, ampicillin-resistant strain
# Procedure: as §1
# [11] = tested on: Haemophilus influenzae C.L.; details: ampicillin-sensitive strain
# Procedure: as §1
# [12] = tested on: Escherichia coli EC14
# Procedure: as §1
# [13] = tested on: Staphylococcus epidermidis EPI1
# Procedure: as §1
# [14] = tested on: Streptococcus pyogenes C203
# Procedure: as §1
# [15] = tested on: Escherichia coli TEM
# Procedure: as §1
structure (smiles),measurement,setting,value
"CCC1OC(=O)CC(O)C(C)C(OC2OC(C)C(OC3CC(C)(O)C(O)C(C)O3)C(N(C)C)C2O)C2CC(O)C(C)(C2)C(=O)C=CC(C)=CC1COC1OC(C)C(O)C(OC)C1OC (stereo not drawn) [8,20-Cyclo-Tylosin, 8,20-Cyclo-tylosin]",MIC,[1],32 µg/mL
same,MIC,[2],> 128 µg/mL
same,MIC,[3],2 µg/mL
same,MIC,[4],0.5 µg/mL
same,MIC,[5],2 µg/mL
same,MIC,[6],2 µg/mL
same,MIC,[7],32 µg/mL
same,MIC,[8],1 µg/mL
same,MIC,[9],2 µg/mL
same,MIC,[10],128 µg/mL
same,MIC,[11],128 µg/mL
same,MIC,[12],> 128 µg/mL
same,MIC,[13],1 µg/mL
same,MIC,[14],1 µg/mL
same,MIC,[15],> 128 µg/mL
